Measurements from patent US20260364181A1, “AKR1C3 Targeted Heterobifunctional Small Molecule Proteolysis Targeting Chimeras” (BOARD OF REGENTS OF THE UNIVERSITY OF NEBRASKA, priority 2022, published 2026).

Tests used:
[1] = system: 22Rv1 prostate cancer cells; experiment: 22Rv1 cell viability (MTS assay); type: cell-based; conditions: 72 h
Description: Cell culture and reagents. 22Rv1 cells were purchased from the American Type Culture Collection (ATCC in 2016) and cultured in RPMI 1640 supplemented with 10% Fetal Bovine Serum (FBS, Fisher Scientific, MT35011CV) and Penicillin-Streptomycin Solution (1%, Fisher Scientific, MT30001Cl) at 37 °C in a humidified incubator with 5% carbon dioxide atmosphere. Stock solutions of E3 ligase ligand, lenalidomide 6 (10 mM), PROTAC 5 (25 mM), and AKR1C3 inhibitor 3 (100 mM) were prepared in DMSO.
Cell viability assay. Cells were seeded at a density of 10,000 cells/well in a 96-well plate containing 100 μL growth media per well and were incubated at 37 °C in a humidified incubator with 5% carbon dioxide over ~18-24 hours. Cells were treated with 6, 5, and 3 serially diluted at the indicated concentrations limiting the final DMSO concentration to less than 0.1% and incubated at 37 °C for 72 hours. 10 μL of MTS reagent (CellTiter96®Aqueous One Solution Reagent, Promega, G3580) was added to each well and incubated at the above-mentioned conditions for 4 hours. Absorbance was recorded at OD 490 nm on a Synergy LX multi-mode reader and the viability of cells were plotted as percentage of DMSO control.

AKR1C1/C2 = AKR1C1/C2 protein degradation in 22Rv1 prostate cancer cells (Western blot); type: cell-based
Description: Protein Expression via Western Blot. 22Rv1 cells were seeded in a 6-well plate and incubated overnight. Next day, the cells were treated with varying concentrations of 6 (1 and 10 μM) and 5 (0.5, 1, 10, 50, 100, 250, and 500 nM; 1, 10, and 50 μM) for 24 hours and 5 (1 and 10 nM) at different time points (0, 2, 4, 6, 12, 16, 24, 48, and 72 h). Whole cell lysates were extracted in RIPA lysis buffer containing protease inhibitor and EDTA (Fisher Scientific, PI78440). Protein concentrations in each sample was estimated following BCA assay (Pierce™ BCA protein assay kit, Fisher Scientific, PI23227) as per the manufacturer's protocol. Proteins were standardized using RIPA lysis buffer with Laemelli SDS sample buffer (Thermo Scientific, AAJ61337AC) and heated at 1000C for 15 minutes. The proteins were resolved on a 4-12% premade gel (Invitrogen, NW04120BOX) at 60-90 V in 20× Bolt™ MES SDS running buffer (Fisher Scientific, B000202) and transferred onto a nitrocellulose membrane (Invitrogen, IB23001) using iBlot 2. The membranes were blocked with 2.5% non-fat dry milk (Bio-Rad, 1706404) for 1 h, and the membrane was incubated overnight on a rocking platform at 4 °C with the desired primary antibodies against AKR1C3 (mouse mAb, 1:200, Sigma, A6229), AKR1C1/C2 (rabbit mAb, 1:500, Abcam, ab179448), ARv7 (rabbit mAb, 1:500, Abcam, ab198394) and actin (mouse mAb, 1:1,000, ThermoFisher, MA5-11869). The membranes were washed three times, 10 minutes each, with 1×Tris-buffered saline (TBST, Bio-Rad, 1706435) in 0.1% Tween 20, on a rocking platform wherein they were incubated with rabbit anti-mouse IgG (ThermoFisher, 31450) or goat anti-rabbit IgG (Jackson ImmunoResearch, 111-035-003) secondary antibody (1:1,000) horseradish peroxidase conjugate for 1 hour. […] Bands were quantified by densitometry using ImageJ software and fold change in AKR1C3, AKR1C1/C2, and ARv7 protein expression was determined based on actin controls. […]

IC50 ([1]; Homo sapiens, 22Rv1, MTS, mean±standard deviation of two independent experiments): 49.3 ± 1.4 µM
DC50 (AKR1C1/C2; 72 hours, read-out: AKR1C1/C2 DC50 (half-maximal degradation concentration)): 0.049 µM
Structure (SMILES): O=C(O)/C=C/c1cc(C(=O)NCc2ccc(OCc3cn(CCOCCOCC(=O)Nc4cccc5c4CN(C4CCC(=O)NC4=O)C5=O)nn3)cc2)cc(-c2ccccc2)c1 (centres unmarked) [Compound IA, (E)-3-(5-((4-((1-(2-(2-(2-((2-(2,6-dioxopiperidin-3-yl)-1-oxoisoindolin-4-yl)amino)-2-oxoethoxy)ethoxy)ethyl)-1H-1,2,3-triazol-4-yl)methoxy)benzyl)carbamoyl)-[1,1 ? biphenyl]-3-yl)acrylic acid]
22Rv1 cell viability activity in words [1]: equipotent
degradation of AKR1C1/C2 compared with AKR1C3 (AKR1C1/C2; 10 nM, in words): to a lesser extent than AKR1C3
degradation of AKR1C1/C2 (in words) (AKR1C1/C2; 10 nM, time-dependent): trend of degradation of AKR1C1/C2 in a time-dependent manner
